Key:
[1] = Intrinsic clearance in liver microsomes; assay type: in vitro ADME, mouse; details: for Mouse CLhep, % Hepatic blood flow: mouse liver microsomes; for CLhep predicted at 1 μM: mouse, liver microsomes, pH 7.4, mouse liver microsomes, read-out: Mouse CLhep (in vitro hepatic clearance from microsomal CLint)
Experimental: The in vitro intrinsic clearance (CLint) was investigated in commercially obtained hepatic microsomes from mouse, rat, and human donors using the substrate depletion (i.e., loss-of-parent vs time, or half-life (t 1/2) method) approach with analyte detection via liquid chromatography–tandem mass spectrometry (LC-MS/MS). For each species, mean %parent remaining values at each time point were calculated from replicate raw data (analyte:IS peak area ratios) and used to determine in vitro t 1/2 and CLint.
Experiments were carried out by using a robot-assisted liquid handler (Bravo with BenchCell, Agilent). The compound was incubated (1 μM final concentration) in buffer (100 mM potassium phosphate pH 7.4 with 3 mM MgCl2) containing hepatic microsomes (0.5 mg/mL final concentration) from each species, discretely, at 37 °C under constant orbital shaking. After 5 min (preincubation), reactions were initiated by the addition of nicotinamide adenine dinucleotide phosphate (NADPH, 1 mM final concentration). At selected time intervals (0, 3, 7, 15, 25, and 45 min) postaddition of NADPH, aliquots (50 μL) were taken and placed into a 96-shallow-well plate containing ice-cold acetonitrile (150 μL) with carbamazepine (IS, 50 nM). The plates were then centrifuged (3000 rcf at 4 °C) for 10 min. The supernatants were transferred to a new 96-shallow-well daughter plate and diluted (1:1 v/v) with water (Milli-Q filtered). The plates were then sealed for preparation for LC-MS/MS analysis (see below).
Analyte:IS peak area ratios generated by LC-MS/MS were used to construct natural log-transformed %parent remaining vs time plots (using t = 0 min post-NADPH addition sample data as the starting point set to 100%). In vitro compound t 1/2 values were calculated by using the following equation: t1/2=ln(2)/k where k is the slope from the linear regression analysis of the natural log-transformed data (using means from all replicates at each time point). Resulting t 1/2 values were then used to calculate hepatic CLint values according to the following equation and with the use of species-specific scale-up factors for liver weight (grams) per total body weight (kg): CLint=0.693/invitrot1/2×1mLincubation/0.5mgmicrosomes×45mgmicrosomes/1gramliver×garamliver/kgbodywt
^aScale-up factors used are 45 (rat) and 20 (human).
Predicted hepatic clearance (CLhep) was calculated by using the following equation: CLhep=Qh×CLint/Qh+CLint
Q h represents hepatic blood flow (mL/min/kg): 21 for humans, 70 for rats, and 90 for mouse.

[2] = In vivo IV pharmacokinetics, rat cassette; details: Sprague-Dawley, plasma, 0.2 mg/kg, male SD rats, 0.2 mpk IV; for Vd: read-out: Vss; for clearance: read-out: rat in vivo CLp
Experimental: In-life phase–Compounds were formulated in 12% ethanol, 48% PEG400, and 40% DMSO (v/v/v) at a concentration of 1 mg/mL and administered as a single 0.2 mg/kg IV dose (1 mL/kg) to male, Sprague–Dawley rats (n = 1; 342 g body weight) via injection into a surgically implanted jugular vein catheter. Blood samples were collected serially from a surgically implanted carotid artery catheter in each animal over multiple postadministration time points (0.033, 0.117, 0.25, 0.5, 1, 2, 4, 7, and 24 h) into chilled, K2EDTA anticoagulant-fortified tubes and immediately placed on wet ice. The blood samples were then centrifuged (1700 rcf, 5 min, 4 °C) in order to obtain plasma samples, which were stored at −80 °C until analysis by LC-MS/MS. VU6032735 was also dosed IV in C57Bl6 mice at 5 mg/kg IV to determine mouse PK. Formulation and experimental design were identical to those used for rats except that whole blood was used for analysis.
Plasma samples from the in-life phase of the study were thawed at ambient temperature (benchtop), and then, aliquots (20 μL per sample) were transferred to a 96-shallow-well (V-bottom) plate. Matrix-matched quality control (QC) samples and a standard curve of the compound (1 mg/mL DMSO stock solution) were prepared in blank rat plasma (K2EDTA-treated) via serial dilution and transferred (20 μL each) to the plate along with multiple blank plasma and tissue homogenate samples. Acetonitrile (120 μL) containing IS (10 nM carbamazepine) was added to each well of the plate to precipitate the protein. The plate was then centrifuged (4000 rcf, 5 min, ambient temperature), and the resulting supernatants (60 μL each) were transferred to a new 96-shallow-well (V-bottom) plate containing an equal volume (60 μL per well) of water (Milli-Q purified). The plate was then sealed for LC-MS/MS analysis.
Samples were analyzed via electrospray ionization (ESI) LC-MS/MS on an AB Sciex 4500 (Foster City, CA) triple-quadrupole instrument that was coupled with an Agilent 1290 Infinity Binary Pump and multisampler (Santa Clara, CA) and concentrations (ng/mL or ng/g) were determined using a matrix-matched 10-point standard curve and then converted to nM concentrations. Quantitation of compounds was performed via AB Sciex Multiquant software using the raw analyte:IS peak area ratios. The typical detection range was 0.5 ng/mL to ≥5000 ng/mL utilizing a quadratic equation regression with 1/x² weighting. Correction for dilution of all tissue samples was performed postquantitation. The corrections for dilution in the extraction buffer employed correction factors specific to each tissue weight.

Row | Mouse CLhep, % Hepatic blood flow [1] [%] | CLhep predicted at 1 μM [1] [mL/min/kg] | AUC [2] [ng·h/mL] | MRT [2] [h] | half-life [2] [h] | Vd [2] [L/kg] | clearance [2] [mL/min/kg] | SMILES
1 | 98 | 88.1 | 47 | 1.58 | 1.8 | 6.75 | 71 | Cc1cc(Cl)cc2sc(O[C@@H]3CCN(C(=O)CCCS(=O)(=O)c4cccc(Br)c4)C[C@H]3F)nc12 [VU6047607]
2 | 95 | 85.9 | 58.8 | 1.7 | 1.65 | 5.77 | 56.7 | Cc1cc(Cl)cc2sc(O[C@@H]3CCN(C(=O)CCCS(=O)(=O)c4cccc(Br)c4)C[C@@H]3F)nc12 [VU6047608]

The remaining lines, values behind:

Row | SMILES | Mouse CLhep, % Hepatic blood flow [1] [%] | CLhep predicted at 1 μM [1] [mL/min/kg] | AUC [2] [ng·h/mL] | MRT [2] [h] | half-life [2] [h] | Vd [2] [L/kg] | clearance [2] [mL/min/kg]
3 | Cc1cc(Cl)cc2sc(O[C@H]3CCN(C(=O)CCCS(=O)(=O)c4cccc(Br)c4)C[C@H]3F)nc12 [VU6047606] | 93 | > 60 | 83.1 | 2.09 | 1.96 | 5.03 | 40.1
4 | Cc1cc(Cl)cc2sc(O[C@H]3CCN(C(=O)CCCS(=O)(=O)c4cccc(Br)c4)C[C@@H]3F)nc12 [VU6047609] | 97 | 87.6 | 45.2 | 2.36 | 2.91 | 10.5 | 73.8
5 | O=C(c1ccc(OCc2ccc(OC(F)(F)F)cc2)cc1)N1CCN(c2ccc(C(F)(F)F)cn2)CC1 [VU6032735] | 56 | 50.1 | 114 | 2.66 | 2.19 | 4.69 | 29.3

— PMC12441834, “Highly Potent and Subtype-Selective Sperm-Specific Potassium Channel SLO3 Inhibitors Display High Tissue Exposure in the Murine Female Reproductive Tract” (ACS Pharmacology & Translational Science, 2025)
